Measurements from article PMC4806436, “Disrupted ADP-ribose metabolism with nuclear Poly (ADP-ribose) accumulation leads to different cell death pathways in presence of hydrogen peroxide in procyclic Trypanosoma brucei” (Parasites & Vectors, 2016).
“Also recorded” adds a separate entry of the source. Like-named read-outs stand apart in the source and are kept apart here.

How the values were obtained:
[1] = system: Trypanosoma brucei procyclic parasites; assay: Effect of inhibitors on procyclic parasite growth (OD600, 48 h); type: cell-based; conditions: 2.5 μM, 48 h, positive control
Method: Trypanosoma brucei procyclic parasites were grown in SDM-79 medium for 48 h until reaching a density of 5×10^6 cells/mL. Aliquots of 200 μl were distributed in 96-well plates and inhibitors were present at different final concentrations, as indicated in the figures. Nifurtimox (NFX) was used as a positive control in concentrations ranging from 0.25–25 μM. Culture density was checked by OD600 after 48 h.
In all experiments, triplicates were done for each condition tested and data significance was assessed by one-way Anova (GraphPad Prism5.03 version Software).

[2] = system: Trypanosoma brucei bloodstream parasites; assay: Effect of inhibitors on bloodstream parasite growth (Neubauer count, 24 h); type: cell-based; conditions: Olaparib 29 nM, Rucaparib 1.5 μM, 3-AB 580 μM, Nifurtimox 2.5 μM
Method: Trypanosoma brucei bloodstream parasites were grown in HMI-11 medium for 24 h until reaching a density of 5×10^5 cells/mL. Aliquots of 100 μL were distributed in 96-well plates and inhibitors were added at different concentrations as indicated in the figures. After an incubation period of 24 h, the parasite number was counted with a Neubauer chamber. In all experiments, triplicates were done for each condition tested and data significance was assessed by one-way Anova (GraphPad Prism5.03 version Software).

[3] = target: TbPARP (Trypanosoma brucei brucei, UniProt Q0PW89); assay: biochemical; conditions: 500 nM NAD+, 11 min at 25 °C, mean of three dose-response curves
Method: The optimal conditions for the activity of purified recombinant TbPARP, were determined by using a fluorometric activity assay. Incubation at 25 °C with shaking at 300 rpm was placed in propylene plates of 96 wells (Greiner BioOne). To terminate the reaction 2 M KOH (20 μL) and 20 % acetophenone in ethanol (20 μL) were added to each well. After incubating for 10 min at 4 °C, 90 μl of 88 % formic acid was added and incubated in an oven at 110 °C for 5 min. This reaction converts remaining NAD^+ to a fluorescent derivative. After incubation, the plate was allowed to cool down for 15 min and fluorescence was measured using excitation wavelengths of 372 nm and 444 nm for excitation and emission, respectively (Varioskan Flash 4.00.53, Thermo Scientific). Consumption of NAD^+ was detected by the decrease in fluorescence. Experiments were done in triplicates. The activity in control wells were kept under 25 % by optimizing the protein concentration and the incubation time, in order to get a robust signal without slowing down the enzyme activity.
A small set of cations was also tested in order to verify whether the enzymatic activity would depend on them. […] The final assay buffer was 100 mM Na2HPO4/NaH2PO4 pH 7, 500 μM TCEP, 1 μg/μL BSA, and 0.025 mg/mL activated DNA (Sigma Aldrich) and 500 nM NAD^+ (Sigma Aldrich).
Thirty - one compounds were tested. Dilutions from DMSO stocks were made (100 μM, 10 μM and 1 μM) and aliquots of those were used in the enzymatic reaction with 10-fold dilution. Inhibitor solutions were added in triplicates to the plate, followed by the addition of the NAD^+. Reactions were initiated by addition of TbPARP diluted in the same buffer (10 nM). The plate was incubated at 25 °C with shaking (300 rpm, Biosan PST-100 HL) for 45 min. […] To detect any potential fluorescence inherent in the compounds, control reactions were carried out separately with compound alone at 10 μM final concentration. The possible fluorescence quenching properties were controlled using wells within the experimental plate containing the compound with 500 nM NAD^+ in the assay buffer.
The IC50 value for 3-AB (Alexis Biochemicals) was also determined to be used as a reference. Briefly, reaction mix together with the inhibitors at half log dilutions were added to a 96-well plate (10 data points). Reactions were incubated for 11 min at 25 °C after initiating the reaction with the addition of 5 nM TbPARP at a final volume of 50 μL. Measurement of the remaining NAD^+ is described in section Screening of TbPARP inhibitors. All reactions were performed in triplicates and three independent dose response curves were fitted for each inhibitor. Control wells with only NAD^+ or NAD^+ and enzyme were used in the curve fitting, as detailed in our previous work.

[4] = system: hPARP-1; conditions: cited from earlier work
[5] = system: wild type procyclic parasites; assay: Annexin V / PI flow cytometric cell death analysis; type: cell-based, Trypanosoma brucei; conditions: 10 μg/mL, apoptosis-like positive control
Method: Parasites were treated with 1 mM H2O2 for different time intervals and the cell death pathway involved was assessed as it has been detailed in our previous work. The exposure of wild type procyclic parasites for 6 and 12 h to 10 μg/mL Concanavalin A type IV (Sigma-Aldrich) confirmed the apoptosis-like death pathway (positive control). […] Results were analyzed with Cyflogic v 1.2.1 software.

[6] = system: PAR formation in procyclic T. brucei; assay: In culture inhibition of PAR formation after H2O2, Dot blot, procyclic form; type: cell-based, Trypanosoma brucei; conditions: for reduction of PAR synthesis in the parasite: discussion, parasite form not given; for inhibition of PAR formation in culture, procyclic form: inhibitor at 10-fold in vitro IC50 (0.23 μM 4-ANI; 65 nM EB-47; 29 nM Olaparib; 1.5 μM Rucaparib), 30 min preincubation, 500 μM H2O2 10 min
Method: (§1) T. brucei procyclic strain 29–13 [29] was cultured at 28 °C in SDM-79 (Bioscience) containing 10 % (v/v) FCS and 0002 % hemin. T. brucei bloodstream strain 427 90-13 [29] was cultured at 37 °C in HMI-11 (Iscore’s Modified Dulbecco’s Medium (Invitrogen), 100 mg/L sodium pyruvate, 136.1 mg/L hypoxantine, 38.7 mg/L thymidine, 28.22 mg/L bathocuproinedisulfonic acid, 181.8 mg/L L-cysteine, 3.024 mg/L sodium carbonate, 196 μM β-mercaptoethanol) containing FCS (10 % v/v). Parasite viability was analyzed by microscopy.
(§2) For in culture inhibition assays, parasites of the procyclic form of Trypanosoma brucei were grown for 48 h up to a density of 5×10^6 parasites/mL. Parasites of the bloodstream form were grown for 24 h up to a density of 5×10^5 parasites/mL. In both cases, cells were harvested and preincubated for 30 min or 10 min in PBS-Glucose 2 % with inhibitors added, after which the parasites were treated with 500 μM or 250 μM hydrogen peroxide for procyclic and bloodstream forms, respectively, for 10 min.

[7] = system: PAR formation in bloodstream T. brucei; assay: In culture inhibition of PAR formation after H2O2, Dot blot, bloodstream form; type: cell-based, Trypanosoma brucei; conditions: inhibitor at 10-fold in vitro IC50 (29 nM Olaparib; 1.5 μM Rucaparib), 10 min preincubation, 250 μM H2O2
Method: as §1, §2

[8] = system: RNAi-TbPARP procyclic parasites; assay: Growth of Tet induced RNAi-TbPARP procyclic parasites with inhibitor; type: cell-based, Trypanosoma brucei; conditions: 290 nM inhibitor
Source text: A fragment of the TbPARP cDNA (nucleotides 1030 to 1445) [GenBank:DQ679800, Tb927.5.3050] and a fragment of the TbPARG cDNA (nucleotides 593 to 979) [Tb927.9.12810] were sub-cloned into the tetracycline-inducible expression vector p2T7^TI-177 [30] to down-regulate the genes of interest. In addition, whole TbPARP cDNA sequence was sub-cloned into the expression vector p2216 [31] (PCR primer sequences available upon request) to over-express the PARP-eYFP fusion gene.
Not I-linearized RNAi-TbPARP and RNAi-TbPARG constructs and the over-expression construct (10 μg) were transfected into procyclic parasites by electroporation, as described by Downey et al.. The selection of the transfectants was carried out with 20 μg/mL zeocin, and dsRNA and over-expression of the fusion protein was induced with 1.0 μg/mL tetracycline for 3 days.

[9] = system: T. cruzi epimastigotes; conditions: cited from earlier work
[10] = system: T. brucei procyclic parasites; assay: Cell survival (motility) after H2O2 treatment with PARP inhibitor; conditions: 29 nM inhibitor
Method: Cell survival was determined by incubating 500 μL of 1 × 10^6 parasites/mL culture in 24-well cell culture plates (Cellstar) for 6 h with different concentrations of H2O2 (30 μM, 95 μM, 300 μM and 950 μM) and counting motile parasites over the total number using a Neubauer chamber. Each condition was tested in triplicates. Statistical significance was assessed with two-way Anova followed by Bonferroni test (version 5.03 of GraphPad Prism for Windows).

[11] = 5 nM TbPARP, read-out: TbPARP IC50
[12] = 5 nM TbPARP, read-out: TbPARP pIC50 ± SEM (converted)

TbPARP, sequence (Q0PW89 entry or part of it): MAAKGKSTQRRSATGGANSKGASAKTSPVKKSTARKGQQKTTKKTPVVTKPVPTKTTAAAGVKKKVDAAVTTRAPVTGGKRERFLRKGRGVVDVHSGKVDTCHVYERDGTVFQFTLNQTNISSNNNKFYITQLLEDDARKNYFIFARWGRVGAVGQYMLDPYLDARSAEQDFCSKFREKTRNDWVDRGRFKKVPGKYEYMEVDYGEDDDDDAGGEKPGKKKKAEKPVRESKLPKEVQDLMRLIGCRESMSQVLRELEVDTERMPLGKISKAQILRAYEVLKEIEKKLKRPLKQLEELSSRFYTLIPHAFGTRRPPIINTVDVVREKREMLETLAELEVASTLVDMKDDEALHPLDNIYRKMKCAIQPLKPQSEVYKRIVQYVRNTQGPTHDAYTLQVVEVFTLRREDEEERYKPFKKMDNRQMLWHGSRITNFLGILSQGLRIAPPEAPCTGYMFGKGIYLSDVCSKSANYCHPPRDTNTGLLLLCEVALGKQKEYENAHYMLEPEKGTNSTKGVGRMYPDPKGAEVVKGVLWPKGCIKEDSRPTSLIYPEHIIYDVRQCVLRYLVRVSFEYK

**Q.** With `CC1CS(=O)(=O)CCN1/N=C/c1ccc([N+](=O)[O-])o1` (stereo not shown) [Nifurtimox] as the molecule, how does the “effect on procyclic parasite growth” value [1] read?
**A.** slowed down procyclic parasite growth

**Q.** What about the “effect on bloodstream parasite growth” value [2] of the same molecule?
**A.** did provoke a decrease on bloodstream parasite growth

**Q.** With `Cc1nc(=O)c2cccc(O)c2[nH]1` [NU1025, 8-hydroxy-2-methyl-1,4-dihydroquinazolin-4-one] as the molecule, how does the IC50 ([3]; TbPARP IC50, 5 nM TbPARP) read?
**A.** 680 nM

**Q.** What about the IC50 ([3]; TbPARP pIC50 ± SEM, 5 nM TbPARP) of the same molecule?
**A.** 676 nM

**Q.** What about the IC50 ([4]; reported for human PARP-1) of the same molecule?
**A.** 400 nM

**Q.** With Concanavalin A as the molecule, how does the “cell death pattern (Annexin V incorporation)” value [5] read?
**A.** typical apoptosis response with an increment in Annexin incorporation

**Q.** What does the source list for `Nc1ccc2c3c(cccc13)C(=O)NC2=O` [Compound 4-ANI, 8-amino-3-azatricyclo[7.3.1.0^{5,13}]trideca-1(12),5,7,9(13),10-pentaene-2,4-dione]?
**A.** IC50 [3, 11]: 23 nM; IC50 [3, 12]: 22.9 nM; reduction of PAR synthesis in the parasite [6]: not able to reduce PAR synthesis in the parasite; inhibition of PAR formation in culture, procyclic form [6]: scarcely inhibited the enzyme; IC50 [4]: 180 nM

**Q.** Which IC50 [3, 11] does the source give for `C[C@]1(c2nc3c(C(N)=O)cccc3[nH]2)CCCN1` [Veliparib, 2-[(2R)-2-methylpyrrolidin-2-yl]-1H-1,3-benzodiazole-4-carboxamide] here?
**A.** 49 nM

**Q.** And the IC50 [3, 12]?
**A.** 49 nM

**Q.** And the Ki [4]?
**A.** 5 nM

**Q.** With `O=C(c1cc(Cc2n[nH]c(=O)c3ccccc23)ccc1F)N1CCN(C(=O)C2CC2)CC1` [Olaparib, 4-({3-[(4-cyclopropanecarbonylpiperazin-1-yl)carbonyl]-4-fluorophenyl}methyl)-1,2-dihydrophthalazin-1-one] as the molecule, how does the IC50 [3, 11] read?
**A.** 2.9 nM

**Q.** And the IC50 [3, 12]?
**A.** 2.95 nM

**Q.** And the “inhibition of PAR formation in culture, procyclic form” value [6]?
**A.** inhibited PAR formation in culture; also recorded: able to reduce PAR formation

**Q.** What about the “inhibition of PAR formation in culture, bloodstream form” value [7] of the same molecule?
**A.** able to inhibit PAR formations in culture; also recorded: able to reduce PAR formation

**Q.** What about the “effect on bloodstream parasite growth” value [2] of the same molecule?
**A.** not able to significantly affect T. brucei growth or survival

**Q.** And the “growth rate of Tet induced RNAi-TbPARP procyclic parasites” value [8]?
**A.** no change in growth rate

**Q.** And the “decrease in growth of T. cruzi epimastigotes in culture” value ([9]; 25 nM)?
**A.** 50%

**Q.** And the “parasite viability (motility) in presence versus absence of inhibitor” value ([10]; 30 μM H2O2, 6 h)?
**A.** no difference in parasite viability

**Q.** What about the “parasite viability (motility) in presence versus absence of inhibitor” value ([10]; 95 μM H2O2, 6 h) of the same molecule?
**A.** reduced the loss of viability induced by the oxidant

**Q.** What about the “parasite motility in presence versus absence of inhibitor” value ([10]; 300 μM H2O2, 6 h, not statistically significant) of the same molecule?
**A.** slight protective effect

**Q.** With `Nc1ncnc2c1ncn2[C@@H]1O[C@H](C(=O)N2CCN(CC(=O)Nc3cccc4c3CNC4=O)CC2)[C@@H](O)[C@H]1O` [EB-47, 2-(4-{[(2S,3S,4R,5R)-5-(6-amino-9H-purin-9-yl)-3,4-dihydroxyoxolan-2-yl]carbonyl}piperazin-1-yl)-N-(1-oxo-2,3-dihydro-1H-isoindol-4-yl)acetamide] as the molecule, how does the IC50 [3, 11] read?
**A.** 6.5 nM

**Q.** What about the IC50 [3, 12] of the same molecule?
**A.** 6.46 nM

**Q.** And the “reduction of PAR synthesis in the parasite” value [6]?
**A.** not able to reduce PAR synthesis in the parasite

**Q.** What about the “inhibition of PAR formation in culture, procyclic form” value [6] of the same molecule?
**A.** did not inhibit TbPARP at all

**Q.** Which IC50 [3, 11] does the source give for `Oc1nc(C2CC2)nc2c1CSCC2` [RF03876, 2-cyclopropyl-5H,7H,8H-thiopyrano[4,3-d]pyrimidin-4-ol] here?
**A.** 1100 nM

**Q.** And the IC50 [3, 12]?
**A.** 1150 nM

**Q.** What does the source list for `NC(=O)c1cccc(N)c1` [Compound 3-AB, 3-aminobenzamide]?
**A.** IC50 [3, 11]: 58000 nM; IC50 [3, 12]: 57500 nM; effect on bloodstream parasite growth [2]: did provoke a decrease on bloodstream parasite growth; IC50 ([4]; reported for human PARP-1): 22000 nM; effect on T. cruzi growth ([9]; reported earlier, reference not given): reported to diminish T. cruzi growth

**Q.** Which results are given for `CN(C)CC(=O)Nc1ccc2[nH]c(=O)c3ccccc3c2c1` [PJ-34, 2-(dimethylamino)-N-(6-oxo-5,6-dihydrophenanthridin-2-yl)acetamide]?
**A.** IC50 [3, 11]: 580 nM; IC50 [3, 12]: 589 nM

**Q.** For `O=c1[nH]ccc2c(O)cccc12` [1,5-Isoquinolinediol, 5-hydroxy-1,2-dihydroisoquinolin-1-one], which IC50 [3, 11] is on record?
**A.** 1200 nM

**Q.** And the IC50 [3, 12]?
**A.** 1230 nM

**Q.** What about the IC50 ([4]; reported for human PARP-1) of the same molecule?
**A.** 390 nM
